Experimental data taken from US12215173B2, “Kappa opioid receptor peptide amide ligands” (priority 2019, dated 2025).
Where two headings read alike, the source gives them in different places. Square brackets hold non-standard residues; d marks the D form. Peptide text beside a SMILES is read from it. * marks the point of attachment. ξ: configuration not given here. Piperidin1yl(4-NH2,4-CO2Me) = COC(=O)C1(N)CCN(*)CC1; Pyrrolidinyl(3-NH2,3-CO2Me) = COC(=O)C1(N)CCN(*)C1; Pyrrolidino(3-NH2-3-COOH) = NC1(C(=O)O)CCN(*)C1; dAla(cPr) = N[C@H](CC1CC1)C(=O)O; Tic = O=C(O)[C@@H]1Cc2ccccc2CN1; dTic = O=C(O)[C@H]1Cc2ccccc2CN1; Aic = NC1(C(=O)O)Cc2ccccc2C1; ξL = CC(C)CC(N)C(=O)O

Assays:
[1] = target: recombinant human mu (MOR) opioid receptor (Homo sapiens (Human), UniProt P35372); assay: Opioid receptor radioligand binding assay, MOR
[2] = target: recombinant human kappa (KOR) opioid receptor (Homo sapiens (Human), UniProt P41145); assay: biochemical; type: binding; conditions: HEK293 cell membranes, 0.5 nM [3H]diprenorphine
[3] = target: Opioid Kappa Receptor (recombinant human, HEK293 cells) (Homo sapiens (Human), UniProt P41145); assay: cell-based; conditions: read-out: EC50
[4] = target: recombinant human delta (DOR) opioid receptor (Homo sapiens (Human), UniProt P41143); assay: Opioid receptor radioligand binding assay, DOR
[5] = HEK293 cell membranes, 0.5 nM [3H]DAMGO, read-out: MOR, IC50
[6] = HEK293 cell membranes, 0.5 nM [3H]DADLE, read-out: DOR, IC50

recombinant human delta (DOR) opioid receptor, sequence (P41143 whole entry, looked up): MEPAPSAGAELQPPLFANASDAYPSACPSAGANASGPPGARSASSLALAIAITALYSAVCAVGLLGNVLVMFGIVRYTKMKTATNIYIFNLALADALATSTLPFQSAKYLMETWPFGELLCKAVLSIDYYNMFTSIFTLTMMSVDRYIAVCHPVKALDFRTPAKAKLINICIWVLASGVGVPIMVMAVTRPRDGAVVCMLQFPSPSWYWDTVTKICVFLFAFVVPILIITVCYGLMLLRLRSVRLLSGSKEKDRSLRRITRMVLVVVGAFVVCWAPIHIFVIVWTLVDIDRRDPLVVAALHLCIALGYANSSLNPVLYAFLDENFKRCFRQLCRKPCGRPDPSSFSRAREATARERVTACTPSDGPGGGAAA

CC(C)C[C@@H](NC(=O)[C@@H](Cc1ccccc1)NC(=O)[C@H](N)Cc1ccccc1)C(=O)N[C@H](CCCCN)C(=O)N1CCN(C(=O)NC2CC2)CC1 [Compound 13-48]
IC50 [1]: > 10000 nM | IC50 [2]: 0.36 nM | EC50 [3]: 5.69 nM | IC50 [4]: > 10000 nM

CC(C)C[C@@H](NC(=O)[C@@H](Cc1ccccc1)NC(=O)[C@H](N)Cc1ccccc1)C(=O)N[C@H](CCCCN)C(=O)N1CCC(N)(C(=O)OC2CC2)C1 (some centres unmarked) [Compound 40]
IC50 [1]: > 10000 nM | IC50 [2]: 0.41 nM | EC50 [3]: 11.9 nM | IC50 [4]: > 1000 nM

CC(C)C[C@@H](NC(=O)[C@@H](Cc1ccccc1)NC(=O)[C@H](N)Cc1ccccc1)C(=O)N[C@H](CCCCN)C(=O)N1CC(=O)NC(=O)C1 [Compound 13-63]
IC50 [1, 5]: > 10000 nM | IC50 [2]: 1.81 nM | EC50 [3]: 5.2 nM | IC50 [4, 6]: > 10000 nM

CC(C)C[C@@H](NC(=O)[C@@H](Cc1ccccc1)NC(=O)[C@H](N)Cc1ccccc1)C(=O)N[C@H](CCCCN)C(=O)N1CCC(NC(=O)[C@@H](N)CC(N)=O)CC1 [Compound 13-42]
IC50 [1, 5]: > 10000 nM | IC50 [2]: 0.48 nM | EC50 [3]: 8.43 nM | IC50 [4, 6]: > 10000 nM

CC(C)C[C@@H](NC(=O)[C@@H](Cc1ccccc1)NC(=O)[C@H](N)Cc1ccccc1)C(=O)N[C@H](CCCCN)C(=O)N1CCC(NC(=O)C(N)=O)CC1 [Compound 13-57]
IC50 [4, 6]: > 10000 nM

CNC(=O)C(=O)NC1CCN(C(=O)[C@@H](CCCCN)NC(=O)[C@@H](CC(C)C)NC(=O)[C@@H](Cc2ccccc2)NC(=O)[C@H](N)Cc2ccccc2)CC1 [Compound 13-28]
IC50 [1, 5]: > 10000 nM | IC50 [2]: 0.26 nM | EC50 [3]: 20.8 nM | IC50 [4, 6]: > 10000 nM

COC(=O)C1(N)CCN(C(=O)[C@@H](CCCCN)NC(=O)[C@@H](CC(C)C)NC(=O)[C@@H](Cc2ccccc2)NC(=O)[C@H](N)Cc2ccccc2)C1 (some centres unmarked) [Compound 13-62]
IC50 [1]: > 10000 nM | IC50 [2]: 0.2 nM | EC50 [3]: 2.96 nM | IC50 [4]: > 10000 nM

CCCC[C@@H](NC(=O)[C@@H](Cc1ccccc1)NC(=O)[C@H](N)Cc1ccccc1)C(=O)N[C@H](Cc1cnc(N)nc1)C(=O)N1CCC(N)(C(=O)OC)C1 (some centres unmarked) [Compound 82]
IC50 [1, 5]: 5170 nM | IC50 [2]: 42.5 nM | IC50 [4, 6]: > 10000 nM

COC(=O)C1(N)CCN(C(=O)[C@@H](CCCCN)NC(=O)[C@@H](CC(C)C)NC(=O)[C@@H]2Cc3ccccc3CN2C(=O)[C@H](N)Cc2ccccc2)C1 (stereo partly drawn) [Compound 146] (H-[dF][Tic][dL][dK]-{Pyrrolidinyl(3-NH2,3-CO2Me)})
IC50 [1, 5]: > 10000 nM | IC50 [2]: 164 nM | IC50 [4, 6]: > 10000 nM

COC(=O)C1(N)CCN(C(=O)[C@@H](CCCCN)NC(=O)[C@H]2CCCN2C(=O)[C@@H](Cc2ccccc2)NC(=O)[C@H](N)Cc2ccccc2)CC1 [Compound 89] (H-[dF][dF][dP][dK]-{Piperidin1yl(4-NH2,4-CO2Me)})
IC50 [1, 5]: > 10000 nM | IC50 [2]: > 200 nM | IC50 [4, 6]: > 10000 nM

COC(=O)C1(N)CCN(C(=O)[C@@H](CCCCN)NC(=O)[C@@H](CC(C)C)NC(=O)[C@@H](Cc2ccccc2)NC(=O)[C@H](N)Cc2ccc(F)cc2)C1 (some centres unmarked) [Compound 181]
EC50 [3]: 8.7 nM

COC(=O)C1(N)CCN(C(=O)[C@@H](CCCCN)NC(=O)C(CC(C)C)NC(=O)[C@@H](Cc2ccccc2)NC(=O)C2(N)Cc3ccccc3C2)C1 (some centres unmarked) [Compound 156] (H-[Aic][dF][ξL][dK]-{Pyrrolidinyl(3-NH2,3-CO2Me)})
IC50 [1, 5]: 5370 nM | IC50 [2]: 2.3 nM | IC50 [4, 6]: > 10000 nM

N=C(N)NCCC[C@@H](NC(=O)[C@@H](CC1CC1)NC(=O)[C@@H](Cc1ccccc1)NC(=O)[C@H](N)Cc1ccccc1)C(=O)N1CCC(N)(C(=O)O)C1 (some centres unmarked) [Compound 134] (H-[dF][dF][dAla(cPr)][dR]-{Pyrrolidino(3-NH2-3-COOH)})
IC50 [2]: 2.35 nM | EC50 [3]: 12.6 nM

COC(=O)C1(N)CCN(C(=O)[C@@H](CCCCN)NC(=O)[C@H]2CCCN2C(=O)[C@@H](Cc2ccccc2)NC(=O)[C@H](N)Cc2ccccc2)C1 (some centres unmarked) [Compound 92] (H-[dF][dF][dP][dK]-{Pyrrolidinyl(3-NH2,3-CO2Me)})
IC50 [1, 5]: > 10000 nM | IC50 [2]: 33 nM | IC50 [4, 6]: > 10000 nM

CC(C)C[C@@H](NC(=O)[C@@H](Cc1ccccc1)NC(=O)[C@H](N)Cc1ccccc1)C(=O)N[C@H](CCCCN)C(=O)N1CCC(O)(CO)CC1 [Compound 13-65]
EC50 [3]: 1.68 nM

CC(C)C[C@@H](NC(=O)[C@@H](Cc1ccccc1)NC(=O)[C@H](N)Cc1ccccc1)C(=O)N[C@H](CCCCN)C(=O)N1CCN(C(=O)/C=C/C(=O)O)CC1 [Compound 13-25]
IC50 [1, 5]: > 10000 nM | IC50 [2]: 5.56 nM | IC50 [4, 6]: > 10000 nM

COCCN(CCOC)C(=O)[C@@H](CCCCN)NC(=O)[C@@H](CC(C)C)NC(=O)[C@@H](Cc1ccccc1)NC(=O)[C@H](N)Cc1ccccc1 [Compound 13-3]
IC50 [1, 5]: > 10000 nM | IC50 [2]: 28.1 nM | IC50 [4, 6]: > 10000 nM

COC(=O)C1(N)CCN(C(=O)[C@@H](CCCCN)NC(=O)[C@@H](CC(C)C)NC(=O)[C@@H](Cc2ccccc2)NC(=O)[C@H](N)Cc2ccc(F)cc2)CC1 [Compound 184]
EC50 [3]: 6.26 nM

CC(C)C[C@@H](NC(=O)[C@@H](Cc1ccccc1)NC(=O)[C@H](N)Cc1ccccc1)C(=O)N[C@H](CCCCN)C(=O)N1CCC(NC(=O)C(N)=O)CC1 [Compound 13-33]
IC50 [1, 5]: > 10000 nM | IC50 [2]: 0.54 nM | IC50 [4, 6]: > 10000 nM

COC(=O)C1(N)CCN(C(=O)[C@@H](CCCNC(=N)N)NC(=O)[C@H]2CCCN2C(=O)[C@@H](Cc2ccccc2)NC(=O)[C@H](N)Cc2ccccc2)CC1 [Compound 22] (H-[dF][dF][dP][dR]-{Piperidin1yl(4-NH2,4-CO2Me)})
IC50 [1, 5]: 5060 nM | IC50 [2]: 200 nM | IC50 [4, 6]: > 10000 nM

CCCN(C(=O)OC)C1CCN(C(=O)[C@@H](CCCCN)NC(=O)[C@@H](CC(C)C)NC(=O)[C@@H](Cc2ccccc2)NC(=O)[C@H](N)Cc2ccccc2)CC1 [Compound 13-49]
IC50 [1, 5]: > 10000 nM | IC50 [2]: 0.46 nM | IC50 [4, 6]: > 10000 nM

CC(C)C[C@@H](NC(=O)[C@@H](Cc1ccccc1)NC(=O)[C@H](N)Cc1ccccc1)C(=O)N[C@H](CCCCN)C(=O)NCc1cccc(C(=O)O)n1 [Compound 13-6]
EC50 [3]: 30.5 nM

CC(C)C[C@@H](NC(=O)[C@@H](Cc1ccccc1)NC(=O)[C@H](N)Cc1ccccc1)C(=O)N[C@H](CCCCN)C(=O)NCc1ccncc1O [Compound 13-11]
IC50 [1, 5]: > 10000 nM | IC50 [2]: 0.91 nM | IC50 [4, 6]: > 10000 nM

CC(C)C[C@@H](NC(=O)[C@@H](Cc1ccccc1)NC(=O)[C@H](N)Cc1ccccc1)C(=O)N[C@H](CCCCN)C(=O)NC1CCN(C(=O)C(=O)NC2CC2)CC1 [Compound 13-37]
IC50 [1, 5]: 9290 nM | IC50 [2]: 11 nM | IC50 [4, 6]: > 10000 nM

CC(C)C[C@@H](NC(=O)[C@@H](Cc1ccccc1)NC(=O)[C@H](N)Cc1ccccc1)C(=O)N[C@H](CCCCN)C(=O)NCCC[C@H](N)C(=O)O [Compound 13-44]
EC50 [3]: 4.75 nM

COC(=O)C1(N)CCN(C(=O)[C@@H](CCCCN)NC(=O)[C@@H](CC(C)C)NC(=O)[C@@H](Cc2ccccc2)NC(=O)[C@H]2Cc3ccccc3CN2)C1 (stereo partly drawn) [Compound 168] (H-[dTic][dF][dL][dK]-{Pyrrolidinyl(3-NH2,3-CO2Me)})
IC50 [1]: 2410 nM | IC50 [2]: 4.23 nM | IC50 [4]: > 10000 nM

COC(=O)C1(N)CCN(C(=O)[C@@H](CCCNC(=N)N)NC(=O)[C@H]2CCCN2C(=O)[C@@H](Cc2ccccc2)NC(=O)[C@H](N)Cc2ccccc2)C1 (some centres unmarked) [Compound 28] (H-[dF][dF][dP][dR]-{Pyrrolidinyl(3-NH2,3-CO2Me)})
IC50 [1, 5]: > 10000 nM | IC50 [2]: > 200 nM | IC50 [4, 6]: > 10000 nM

CC(C)C[C@@H](NC(=O)[C@@H](Cc1ccccc1)NC(=O)[C@H](N)Cc1ccccc1)C(=O)N[C@H](CCCCN)C(=O)N1CCC2(CC1)CNC(=O)N2 [Compound 13-46]
IC50 [1, 5]: > 10000 nM | IC50 [2]: 0.31 nM | IC50 [4, 6]: > 10000 nM

CC(C)C[C@@H](NC(=O)[C@@H](Cc1ccccc1)NC(=O)[C@H]1Cc2ccccc2CN1)C(=O)N[C@H](CCCCN)C(=O)N1CCC(N)(C(=O)O)C1 (stereo partly drawn) [Compound 169] (H-[dTic][dF][dL][dK]-{Pyrrolidino(3-NH2-3-COOH)})
EC50 [3]: 167 nM

NCCCC[C@@H](NC(=O)[C@@H](CC1CC1)NC(=O)[C@@H](Cc1ccccc1)NC(=O)[C@H](N)Cc1ccccc1)C(=O)N1CCC(N)(C(=O)O)C1 (some centres unmarked) [Compound 119] (H-[dF][dF][dAla(cPr)][dK]-{Pyrrolidino(3-NH2-3-COOH)})
IC50 [2]: 2.36 nM | EC50 [3]: 23.1 nM

COC(=O)C1(N)CCN(C(=O)[C@@H](CCCCN)NC(=O)C(CC(C)C)NC(=O)[C@@H](Cc2ccccc2)NC(=O)C2(N)Cc3ccccc3C2)CC1 (some centres unmarked) [Compound 158] (H-[Aic][dF][ξL][dK]-{Piperidin1yl(4-NH2,4-CO2Me)})
IC50 [1, 5]: 5370 nM | IC50 [2]: 0.9 nM | IC50 [4, 6]: > 10000 nM
